How the values were obtained:
[1] = target: T1, p-AXL (Homo sapiens, UniProt P30530); assay: Axl phosphorylation inhibition ELISA in HEK293T cells transfected with NanoLuc-tagged AXL; format: cell-based; conditions: 1 h compound incubation, media (OptiMEM)
T1 construct: expressed in transfected cells; host or cells: HEK293T
T1 sequence (P30530 26-894): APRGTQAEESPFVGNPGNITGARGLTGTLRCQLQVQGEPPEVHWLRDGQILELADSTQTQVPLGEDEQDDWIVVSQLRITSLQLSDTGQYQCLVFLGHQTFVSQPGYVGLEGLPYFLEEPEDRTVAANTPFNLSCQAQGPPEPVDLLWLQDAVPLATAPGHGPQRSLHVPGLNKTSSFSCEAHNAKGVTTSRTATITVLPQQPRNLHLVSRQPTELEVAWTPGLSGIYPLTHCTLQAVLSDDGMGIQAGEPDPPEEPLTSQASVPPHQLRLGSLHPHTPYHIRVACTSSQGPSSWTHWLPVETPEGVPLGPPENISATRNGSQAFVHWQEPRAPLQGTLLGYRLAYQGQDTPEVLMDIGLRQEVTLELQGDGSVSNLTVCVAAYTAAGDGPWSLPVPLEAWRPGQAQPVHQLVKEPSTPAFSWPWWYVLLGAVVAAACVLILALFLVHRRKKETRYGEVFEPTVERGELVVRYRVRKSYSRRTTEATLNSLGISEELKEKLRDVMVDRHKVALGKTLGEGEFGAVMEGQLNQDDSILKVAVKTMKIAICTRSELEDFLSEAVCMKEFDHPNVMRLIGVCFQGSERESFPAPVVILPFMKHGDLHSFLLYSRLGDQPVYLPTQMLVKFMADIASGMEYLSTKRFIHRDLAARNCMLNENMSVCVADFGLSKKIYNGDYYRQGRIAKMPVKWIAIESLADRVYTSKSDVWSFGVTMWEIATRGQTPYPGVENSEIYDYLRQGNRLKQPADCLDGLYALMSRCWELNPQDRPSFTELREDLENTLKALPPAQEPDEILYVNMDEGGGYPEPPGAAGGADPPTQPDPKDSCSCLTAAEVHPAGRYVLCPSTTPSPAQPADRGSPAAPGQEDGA
Summary of the method: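 Phospho-AXL detected by luminescence of NanoLuc tag after capture of cell lysate on biotinylated anti-phospho-tyrosine mAb plates (2 h). Lysates came from transiently transfected HEK293T cells treated 1 h at 37° C with serial 2-fold dilutions (22 points). IC50 by standard 4-parameter logistic fitting.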

[2] = target: T2, Axl (Homo sapiens, UniProt P30530); assay: Biochemical potency, HTRF KinEASE-TK kinase assay; design: purchased Invitrogen; conditions: 5 nM AXL, 700 μM ATP
T2 sequence (P30530 26-894): T1 sequence (P30530 26-894)
Summary of the method: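 HTRF 665/620 readout after a 2 h RT kinase reaction (final 700 μM ATP, 800 nM biotinylated TK substrate, 1% DMSO, HEPES pH 7.4 buffer) gave percent activity. Final enzyme was 5 nM for AXL, 1 nM for TYRO3 or MER, each preincubated 1 h with compound.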

## CN(C)C(=O)c1ccccc1-c1ccc(-c2c[nH]c3ncc(-c4ccc5c(c4)CC[C@@H](N4C6COCC4C6)CC5)cc23)cn1 [Example 170, N,N-Dimethyl-2-(5-{5-[(7S)-7-{3-oxa-6-azabicyclo[3.1.1]heptan-6-yl}-6,7,8,9-tetrahydro-5H-benzo[7]annulen-2-yl]-1H-pyrrolo[2,3-b]pyridin-3-yl}pyridin-2-yl)benzamide]
[1]
  IC50: 100 to 1000 nM
[2]
  IC50: < 100 nM

## Cc1cc(-c2n[nH]c3ncc(-c4ccc5c(c4)CC[C@@H](N4C6COCC4C6)CC5)cc23)ccc1-c1ccccn1 [Example 159, 6-[(7S)-2-{3-[3-Methyl-4-(pyridin-2-yl)phenyl]-2H-pyrazolo[3,4-b]pyridin-5-yl}-6,7,8,9-tetrahydro-5H-benzo[7]annulen-7-yl]-3-oxa-6-azabicyclo[3.1.1]heptane]
[1]
  IC50: 100 to 1000 nM
[2]
  IC50: < 100 nM

## O=C(c1cccnc1-c1ccc(-c2n[nH]c3ncc(-c4ccc5c(c4)CC[C@@H](N4C6COCC4C6)CC5)cc23)cc1)N1CCCC1 [Example 4, 6-[(7S)-2-(3-{4-[3-(Pyrrolidine-1-carbonyl)pyridin-2-yl]phenyl}-1H-pyrazolo[3,4-b]pyridin-5-yl)-6,7,8,9-tetrahydro-5H-benzo[7]annulen-7-yl]-3-oxa-6-azabicyclo[3.1.1]heptane]
[1]
  IC50: 100 to 1000 nM
[2]
  IC50: < 100 nM

## CN(C)C(=O)c1ccccc1-c1ccc(-c2n[nH]c3ncc(-c4ccc5c(c4)CC[C@@H](N4C6COCC4C6)CC5)cc23)cc1 [Example 12, N,N-Dimethyl-4′-{5-[(7S)-7-{3-oxa-6-azabicyclo[3.1.1]heptan-6-yl}-6,7,8,9-tetrahydro-5H-benzo[7]annulen-2-yl]-2H-pyrazolo[3,4-b]pyridin-3-yl}-[1,1′-biphenyl]-2-carboxamide]
[1]
  IC50: < 100 nM
[2]
  IC50: < 100 nM

## CC(C)(O)c1cccnc1-c1ccc(-c2n[nH]c3ncc(-c4ccc5c(c4)CC[C@@H](N4C6COCC4C6)CC5)cc23)cc1 [Example 10, 2-[2-(4-{5-[(7S)-7-{3-Oxa-6-azabicyclo[3.1.1]heptan-6-yl}-6,7,8,9-tetrahydro-5H-benzo[7]annulen-2-yl]-1H-pyrazolo[3,4-b]pyridin-3-yl}phenyl)pyridin-3-yl]propan-2-ol]
[1]
  IC50: < 100 nM
[2]
  IC50: < 100 nM

## CCc1cccnc1-c1ccc(-c2c[nH]c3ncc(-c4ccc5c(c4)CC[C@@H](N4C6COCC4C6)CC5)cc23)cc1 [Example 183, 6-[(7S)-2-{3-[4-(3-Ethylpyridin-2-yl)phenyl]-1H-pyrrolo[2,3-b]pyridin-5-yl}-6,7,8,9-tetrahydro-5H-benzo[7]annulen-7-yl]-3-oxa-6-azabicyclo[3.1.1]heptane]
[1]
  IC50: < 100 nM
[2]
  IC50: < 100 nM

## Cn1ncnc1-c1ccc(-c2n[nH]c3ncc(-c4ccc5c(c4)CC[C@@H](N4C6COCC4C6)CC5)cc23)cc1 [Example 110, 6-[(7S)-2-{3-[4-(1-Methyl-1H-1,2,4-triazol-5-yl)phenyl]-2H-pyrazolo[3,4-b]pyridin-5-yl}-6,7,8,9-tetrahydro-5H-benzo[7]annulen-7-yl]-3-oxa-6-azabicyclo[3.1.1]heptane]
[1]
  IC50: < 100 nM
[2]
  IC50: < 100 nM

## Cc1cccnc1-c1ccc(-c2n[nH]c3ncc(-c4ccc5c(c4)CC[C@@](C)(N4CCC[C@H]4C)CC5)cc23)nc1 [Example 105, 3-Methyl-6′-{5-[(7S)-7-methyl-7-[(2R)-2-methylpyrrolidin-1-yl]-6,7,8,9-tetrahydro-5H-benzo[7]annulen-2-yl]-1H-pyrazolo[3,4-b]pyridin-3-yl}-2,3′-bipyridine]
[1]
  IC50: < 100 nM
[2]
  IC50: < 100 nM

## Cn1nccc1-c1ccc(-c2n[nH]c3ncc(-c4ccc5c(c4)CC[C@@H](N4C6COCC4C6)CC5)cc23)cc1 [Example 109, 6-[(7S)-2-{3-[4-(1-Methyl-1H-pyrazol-5-yl)phenyl]-1H-pyrazolo[3,4-b]pyridin-5-yl}-6,7,8,9-tetrahydro-5H-benzo[7]annulen-7-yl]-3-oxa-6-azabicyclo[3.1.1]heptane]
[1]
  IC50: < 100 nM
[2]
  IC50: < 100 nM

## c1cnc(-c2ccc(-c3c[nH]c4ncc(-c5ccc6c(c5)CC[C@@H](N5C7COCC5C7)CC6)cc34)cc2)c(N2CCOCC2)c1 [Example 5, 6-[(7S)-2-(3-{4-[3-(Morpholin-4-yl)pyridin-2-yl]phenyl}-1H-pyrrolo[2,3-b]pyridin-5-yl)-6,7,8,9-tetrahydro-5H-benzo[7]annulen-7-yl]-3-oxa-6-azabicyclo[3.1.1]heptane]
[1]
  IC50: < 100 nM
[2]
  IC50: < 100 nM

## O=C1OCCN1c1cccnc1-c1ccc(-c2n[nH]c3ncc(-c4ccc5c(c4)CC[C@@H](N4C6COCC4C6)CC5)cc23)cc1 [Example 121, 3-[2-(4-{5-[(7S)-7-{3-Oxa-6-azabicyclo[3.1.1]heptan-6-yl}-6,7,8,9-tetrahydro-5H-benzo[7]annulen-2-yl]-1H-pyrazolo[3,4-b]pyridin-3-yl}phenyl)pyridin-3-yl]-1,3-oxazolidin-2-one]
[1]
  IC50: < 100 nM
[2]
  IC50: < 100 nM

## C[C@@H]1COC(=O)N1c1cccnc1-c1ccc(-c2n[nH]c3ncc(-c4ccc5c(c4)CC[C@@H](N4C6COCC4C6)CC5)cc23)cc1 [Example 124, (4R)-4-Methyl-3-[2-(4-{5-[(7S)-7-{3-oxa-6-azabicyclo[3.1.1]heptan-6-yl}-6,7,8,9-tetrahydro-5H-benzo[7]annulen-2-yl]-1H-pyrazolo[3,4-b]pyridin-3-yl}phenyl)pyridin-3-yl]-1,3-oxazolidin-2-one]
[1]
  IC50: < 100 nM
[2]
  IC50: < 100 nM

## CCOc1cccnc1-c1ccc(-c2n[nH]c3ncc(-c4ccc5c(c4)CC[C@@H](N4C6COCC4C6)CC5)cc23)cc1 [Example 181, 6-[(7S)-2-{3-[4-(3-Ethoxypyridin-2-yl)phenyl]-1H-pyrazolo[3,4-b]pyridin-5-yl}-6,7,8,9-tetrahydro-5H-benzo[7]annulen-7-yl]-3-oxa-6-azabicyclo[3.1.1]heptane]
[1]
  IC50: 100 to 1000 nM
[2]
  IC50: < 100 nM

## c1cnc(-c2ccc(-c3n[nH]c4ncc(-c5ccc6c(c5)CC[C@@H](N5C7COCC5C7)CC6)cc34)cc2)c(O[C@@H]2CCOC2)c1 [Example 104, 6-[(7S)-2-[3-(4-{3-[(3R)—Oxolan-3-yloxy]pyridin-2-yl}phenyl)-1H-pyrazolo[3,4-b]pyridin-5-yl]-6,7,8,9-tetrahydro-5H-benzo[7]annulen-7-yl]-3-oxa-6-azabicyclo[3.1.1]heptane]
[1]
  IC50: < 100 nM
[2]
  IC50: < 100 nM

## c1ccc(-c2ccc(-c3c[nH]c4ncc(-c5ccc6c(c5)CC[C@@H](N[C@H]5CCCOC5)CC6)cc34)cc2)nc1 [Example 32, (3S)—N-[(7S)-3-[3-(4-Pyridin-2-ylphenyl)-1H-pyrrolo[2,3-b]pyridin-5-yl]-6,7,8,9-tetrahydro-5H-benzo[7]annulen-7-yl]oxan-3-amine]
[1]
  IC50: 100 to 1000 nM
[2]
  IC50: < 100 nM

## O=c1ccccn1-c1ccc(-c2n[nH]c3ncc(-c4ccc5c(c4)CC[C@@H](N4C6COCC4C6)CC5)cc23)cc1 [Example 31, 1-[4-[5-[(7S)-7-(3-Oxa-6-azabicyclo[3.1.1]heptan-6-yl)-6,7,8,9-tetrahydro-5H-benzo[7]annulen-3-yl]-1H-pyrazolo[3,4-b]pyridin-3-yl]phenyl]pyridin-2-one]
[1]
  IC50: 100 to 1000 nM
[2]
  IC50: < 100 nM

## CS(=O)(=O)c1cccnc1-c1ccc(-c2c[nH]c3ncc(-c4ccc5c(c4)CC[C@@H](N4C6COCC4C6)CC5)cc23)cc1 [Example 102, 6-[(7S)-2-{3-[4-(3-Methanesulfonylpyridin-2-yl)phenyl]-1H-pyrrolo[2,3-b]pyridin-5-yl}-6,7,8,9-tetrahydro-5H-benzo[7]annulen-7-yl]-3-oxa-6-azabicyclo[3.1.1]heptane]
[1]
  IC50: < 100 nM
[2]
  IC50: < 100 nM
